Patent publication US9738932B2, “Biomarkers for cardiovascular side-effects induced by cox-2 inhibitory compounds” (FIRALIS SAS, priority 2005, dated 2017)

Tested on: mRNA expression in cardiovascular tissues
Assay: Affymetrix GeneChip mRNA expression profiling of monkey tissues (iliac vein, pulmonary vein, aorta, carotid artery, heart) after two-week oral-gavage treatment
[1] = iliac vein, Vioxx animal A60055

## CS(=O)(=O)c1ccc(C2=C(c3ccccc3)C(=O)OC2)cc1 [Vioxx®, rofecoxib]
16 tissues, ANOVA p<0.05, 50 mg/kg/day, two weeks
  expression of MHC class I classical and non-classical molecules, MHC class II molecules and their receptors: significant increases
[1]
  ACE (209749_s_at) mRNA expression, fold change vs control: 1.3 fold
  B2M (216231_s_at) mRNA expression, fold change vs control: 1.4 fold
  BCL6 (215990_s_at) mRNA expression, fold change vs control: 1.3 fold
  BTN2A2 (205298_s_at) mRNA expression, fold change vs control: 1.4 fold
  CCR1 (205098_at) mRNA expression, fold change vs control: 1.4 fold
  CD2 (205831_at) mRNA expression, fold change vs control: 1.4 fold
  CD48 (204118_at) mRNA expression, fold change vs control: 1.5 fold
  CD53 (203416_at) mRNA expression, fold change vs control: 1.5 fold
  CDC2 (210559_s_at) mRNA expression, fold change vs control: 1.5 fold
  CYBB (203922_s_at) mRNA expression, fold change vs control: 1.4 fold
  EMP3 (203729_at) mRNA expression, fold change vs control: 1.4 fold
  FCER1G (204232_at) mRNA expression, fold change vs control: 1.4 fold
  FCGR2A (203561_at) mRNA expression, fold change vs control: 1.5 fold
  FCGRT (218831_s_at) mRNA expression, fold change vs control: 1.4 fold
  FKBP11 (219117_s_at) mRNA expression, fold change vs control: 1.4 fold
  FKBP11 (219118_at) mRNA expression, fold change vs control: 1.5 fold
  GP6 (220336_s_at) mRNA expression, fold change vs control: 1.4 fold
  HCLS1 (202957_at) mRNA expression, fold change vs control: 1.3 fold
  HEM1 (209734_at) mRNA expression, fold change vs control: 1.5 fold
  HLA-A (210514_x_at) mRNA expression, fold change vs control: 1.3 fold
  HLA-A (213932_x_at) mRNA expression, fold change vs control: 1.5 fold
  HLA-C (211799_x_at) mRNA expression, fold change vs control: 1.4 fold
  HLA-E (200904_at) mRNA expression, fold change vs control: 1.4 fold
  HLA-F (221978_at) mRNA expression, fold change vs control: 1.3 fold
  ICAM1 (202637_s_at) mRNA expression, fold change vs control: 1.3 fold
  IL13RA1 (210904_s_at) mRNA expression, fold change vs control: 1.2 fold
  PIK3CD (203879_at) mRNA expression, fold change vs control: 1.2 fold
  PRKCBP1 (209048_s_at) mRNA expression, fold change vs control: 1.3 fold
  PRKCBP1 (209049_s_at) mRNA expression, fold change vs control: 1.5 fold
  PTPN7 (204852_s_at) mRNA expression, fold change vs control: 1.4 fold
  SIGIRR (52940_at) mRNA expression, fold change vs control: 1.2 fold
  STAT1 (200887_s_at) mRNA expression, fold change vs control: 1.5 fold
  STAT1 (AFFX-HUMISGF3A/M97935_3_at) mRNA expression, fold change vs control: 1.4 fold
  STAT3 (208992_s_at) mRNA expression, fold change vs control: 1.5 fold
  TCIRG1 (204158_s_at) mRNA expression, fold change vs control: 1.2 fold
  THY1 (213869_x_at) mRNA expression, fold change vs control: 1.3 fold
  TMPO (209753_s_at) mRNA expression, fold change vs control: 1.5 fold
  TMSB10 (217733_s_at) mRNA expression, fold change vs control: 1.4 fold
  TNFRSF21 (218856_at) mRNA expression, fold change vs control: 1.5 fold
  TRB@ (210915_x_at) mRNA expression, fold change vs control: 1.3 fold
  TRB@ (213193_x_at) mRNA expression, fold change vs control: 1.5 fold
Iliac vein, animal A60055
  209813_x_at fold change vs control: 2.4 fold
  AIF1 (209901_x_at) fold change vs control: 3.0 fold
  AIF1 (213095_x_at) fold change vs control: 3.2 fold
  B2M (201891_s_at) fold change vs control: 3.0 fold
  BCL3 (204908_s_at) fold change vs control: 1.7 fold
  BTN3A1 (207485_x_at) fold change vs control: 4.0 fold
  BTN3A3 (38241_at) fold change vs control: 2.3 fold
  BTN3A3 (204820_s_at) fold change vs control: 4.1 fold
  BTN3A3 (204821_at) fold change vs control: 3.3 fold
  C1QA (218232_at) fold change vs control: 1.7 fold
  C1QB (202953_at) fold change vs control: 1.8 fold
  C1R (212067_s_at) fold change vs control: 2.0 fold
  C1S (208747_s_at) fold change vs control: 3.6 fold
  C2 (203052_at) fold change vs control: 3.3 fold
  C4A (208451_s_at) fold change vs control: 3.8 fold
  CASP1 (209970_x_at) fold change vs control: 2.3 fold
  CASP1 (211367_s_at) fold change vs control: 2.7 fold
  CCL2 (216598_s_at) fold change vs control: 150.9 fold
  CCL3 (205114_s_at) fold change vs control: 3.8 fold
  CCL5 (1405_i_at) fold change vs control: 2.8 fold
  CCL8 (214038_at) fold change vs control: 8.8 fold
  CCL18 (209924_at) fold change vs control: 2.0 fold
  CCL19 (210072_at) fold change vs control: 3.0 fold
  CCNB2 (202705_at) fold change vs control: 2.9 fold
  CD3D (213539_at) fold change vs control: 1.9 fold
  CD8A (205758_at) fold change vs control: 2.3 fold
  CD14 (201743_at) fold change vs control: 2.0 fold
  CD74 (209619_at) fold change vs control: 2.8 fold
  CLU (208791_at) fold change vs control: 2.2 fold
  CMAH (210571_s_at) fold change vs control: 2.0 fold
  CTSC (201487_at) fold change vs control: 2.1 fold
  CTSK (202450_s_at) fold change vs control: 1.5 fold
  CTSS (202902_s_at) fold change vs control: 1.6 fold
  CX3CR1 (205898_at) fold change vs control: 3.6 fold
  CXCL9 (203915_at) fold change vs control: 9.3 fold
  CXCL10 (204533_at) fold change vs control: 19.8 fold
  CXCL11 (210163_at) fold change vs control: 9.7 fold
  CXCL11 (211122_s_at) fold change vs control: 6.6 fold
  CXCL12 (209687_at) fold change vs control: 1.6 fold
  CYBA (203028_s_at) fold change vs control: 1.8 fold
  CYBB (203923_s_at) fold change vs control: 1.6 fold
  CYP1B1 (202436_s_at) fold change vs control: 2.6 fold
  CYP3A5 (214234_s_at) fold change vs control: 3.9 fold
  CYP11B1 (214630_at) fold change vs control: 2.5 fold
  DUSP6 (208893_s_at) fold change vs control: 3.0 fold
  ECGF1 (204858_s_at) fold change vs control: 3.3 fold
  ECM1 (209365_s_at) fold change vs control: 2.0 fold
  F2RL1 (206429_at) fold change vs control: 2.0 fold
  F13A1 (203305_at) fold change vs control: 1.8 fold
  FCGR1A (214511_x_at) fold change vs control: 2.0 fold
  FCGR3A (204006_s_at) fold change vs control: 2.5 fold
  G1P2 (205483_s_at) fold change vs control: 4.5 fold
  GZMB (210164_at) fold change vs control: 3.2 fold
  HCA127 (220040_x_at) fold change vs control: 2.0 fold
  HCK (208018_s_at) fold change vs control: 1.8 fold
  HFE (210864_x_at) fold change vs control: 1.8 fold
